Test results: paper PMC12152883, “Bile acids inhibit equilibrative adenosine transport to alter adenosine receptor signaling in cholestasis” (The Journal of Biological Chemistry, 2025)
“And” between values parts separate entries of the source, which are not always exact repeats. Equal entries are not always repeated.

Assays:
Assay type in all cases: cell-based
CNT2 = target: T1, CNT2 (Homo sapiens, UniProt O43868); test: Radiolabeled BA transport in CNT2 mRNA-injected Xenopus oocytes; settings: 3H-labelled BA, Na+-containing buffer, pH 7.4
T1 construct: expressed in transfected cells; host or cells: Xenopus laevis oocytes injected with in vitro-transcribed capped mRNA
T1 sequence (O43868 1-658): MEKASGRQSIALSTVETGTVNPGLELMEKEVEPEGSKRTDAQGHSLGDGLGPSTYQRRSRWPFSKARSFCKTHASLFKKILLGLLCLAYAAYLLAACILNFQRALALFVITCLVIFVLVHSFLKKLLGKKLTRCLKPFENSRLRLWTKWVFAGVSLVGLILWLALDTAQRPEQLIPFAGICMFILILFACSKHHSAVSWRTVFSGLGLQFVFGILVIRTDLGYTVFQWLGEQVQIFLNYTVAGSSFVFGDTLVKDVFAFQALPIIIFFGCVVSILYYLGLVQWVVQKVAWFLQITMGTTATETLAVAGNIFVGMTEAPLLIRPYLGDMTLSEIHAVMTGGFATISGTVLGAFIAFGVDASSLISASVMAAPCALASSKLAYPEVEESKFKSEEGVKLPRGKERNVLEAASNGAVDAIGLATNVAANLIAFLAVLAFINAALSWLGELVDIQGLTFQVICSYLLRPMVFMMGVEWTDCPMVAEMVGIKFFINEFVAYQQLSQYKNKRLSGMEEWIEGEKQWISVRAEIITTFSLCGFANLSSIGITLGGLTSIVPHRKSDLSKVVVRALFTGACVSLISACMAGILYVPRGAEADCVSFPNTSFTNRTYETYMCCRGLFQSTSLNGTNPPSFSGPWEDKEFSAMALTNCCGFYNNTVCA
Protocol: (§1) We used a Xenopus oocyte-based transport assay that was previously used to examine BA transport by plasma membrane–directed ENT3 with a truncated N-terminus (that harbors lysosomal targeting motif) to experimentally verify whether ENT2 is capable of translocating BAs across the cell membrane ([24]). We tested both ENT1 and ENT2 along with CNT2, a purine nucleoside-specific concentrative transporter, to investigate their capacities to transport radiolabeled BAs. […] Transport was measured at pH 7.4, which is the closest pH to the pH of the extracellular fluid in which cells are exposed to solutes such as BAs to conduct plasma membrane transport ([29]).
(§2) The generated pOX expression constructs were linearized with either the Not1 or Sac1 restriction enzymes. The digested products were purified via phenol‒chloroform extraction. The mRNAs were synthesized using mMESSAGE mMACHINE (Ambion) transcription kits according to the manufacturer’s instructions. The mRNAs were purified via lithium precipitation. Oocytes were procured from Ecocyte. Prior to experiments, procured oocytes were defolliculated by treating with collagenase A-OR II solution followed by washing with Barth’s solution. Following microscopic verification, selected oocytes were incubated to recover overnight at 25 °C in a shaker incubator. Fifty nanoliters (400–800 ng/μl) of equal amounts of mRNAs were injected into defolliculated oocytes the next day. Expression of plasmids was analyzed after RNA isolation from oocyte extracts and conducting qPCR analysis with gene-specific primers as described earlier ([30]). The injected oocytes were incubated at 15 °C for 24 h before transport assays were performed. The uptake of radiolabeled substrates was measured after a 30 min incubation in transport buffer (100 mM NaCl, 2 mM KCl, 1 mM CaCl2, 1 mM MgCl2, and 10 mM Hepes, pH 7.4) at room temperature. […] Individual oocytes were shaken overnight in 10% SDS for complete dissolution, and then the radioactivity was quantified with a Beckman liquid scintillation counter. […]

ENT1 = target: T2, ENT1 (Homo sapiens, UniProt Q99808); test: Radiolabeled BA transport in ENT1 mRNA-injected Xenopus oocytes; settings: 3H-labelled BA, Na+-containing buffer, pH 7.4
T2 construct: The complete ORF of ENT1 (amplified using forward primer); expressed in transfected cells; host or cells: Xenopus laevis oocytes injected with in vitro-transcribed capped mRNA from pOX-hENT1
T2 sequence (Q99808 1-456): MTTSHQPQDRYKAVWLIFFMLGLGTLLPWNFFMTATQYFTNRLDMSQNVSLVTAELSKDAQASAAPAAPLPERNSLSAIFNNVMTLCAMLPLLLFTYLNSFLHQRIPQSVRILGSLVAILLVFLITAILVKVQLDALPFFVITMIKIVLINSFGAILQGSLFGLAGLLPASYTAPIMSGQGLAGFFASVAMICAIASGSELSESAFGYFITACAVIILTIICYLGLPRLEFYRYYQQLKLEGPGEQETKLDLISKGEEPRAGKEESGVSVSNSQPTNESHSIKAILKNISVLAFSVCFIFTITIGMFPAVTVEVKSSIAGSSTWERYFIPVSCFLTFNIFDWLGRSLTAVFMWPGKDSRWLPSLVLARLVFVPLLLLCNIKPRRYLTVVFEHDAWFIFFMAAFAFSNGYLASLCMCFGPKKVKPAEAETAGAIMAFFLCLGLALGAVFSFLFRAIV
Protocol: as §1, §2

HeLa cell line = test: 3H-nucleoside uptake inhibition by BAs in HeLa cell line; settings: BA 100 μM; for % Inhibition of Ado uptake, HeLa cell line, Sodium buffer / % Inhibition of Ado uptake, HeLa cell line, Sodium-free buffer: 3H-Ado 0.02 μM; for extent of inhibition of guanosine transport, HeLa cells: 3H-guanosine 0.02 μM, Na+-free
Protocol: The bars represent the mean ± SD (n = 3). A representative experiment from 3 to 5 independent experiments is presented. Statistical analysis was performed using one-way ANOVA with Dunnett’s multiple comparisons test; ∗p < 0.032, ∗∗p < 0.0021, ∗∗∗p < 0.0002.
HeLa (CCL-2) and HepG2 (HB_8065) were procured from ATCC. Both cell lines were cultured in Eagle's minimum essential medium and Dulbecco's modified Eagle's medium, respectively, supplemented with 10% fetal bovine serum and penicillin-streptomycin (1X). After cells were tested free for mycoplasma contamination, they were plated in 24-well plates, and transport assays were conducted when the cells were 80% confluent. The cells were briefly rinsed with PBS, and then the uptake of radiolabeled substrates was measured after a 5 min incubation in sodium containing (130 mM NaCl, 20 mM Tris–HCl, 3 mM K2HPO4, 1 mM MgCl2.6H2O, 2 mM CaCl2, 5 mM glucose, pH 7.4) or sodium-free (130 mM N-methyl-D-glucamin, 20 mM Tris–HCl, 3 mM K2HPO4, 1 mM MgCl2.6H2O, 2 mM CaCl2, 5 mM glucose, pH 7.4) transport buffers at 37 °C. Uptake was terminated by washing the cells three times with ice-cold arrest buffer containing 20 mM uridine. The cells were shaken for 30 min in 10% SDS for complete dissolution, after which the radioactivity was quantified with a Beckman liquid scintillation counter. The data are presented as the mean ± SD (n = 3).

Compound | transport of BA by CNT2 (CNT2) | transport of BA by ENT1 (ENT1) | % Inhibition of Ado uptake, HeLa cell line, Sodium buffer (HeLa cell line) [%] | % Inhibition of Ado uptake, HeLa cell line, Sodium-free buffer (HeLa cell line) | extent of inhibition of guanosine transport, HeLa cells (HeLa cell line) [%]
C[C@H](CCC(=O)O)[C@H]1CC[C@H]2[C@@H]3[C@H](O)C[C@@H]4C[C@H](O)CC[C@]4(C)[C@H]3C[C@H](O)[C@]12C [CA, cholic acid] | incapable of transporting | incapable of transporting | 52.17 ± 0.51 | 48.8% and 48.78 ± 0.52% | 16.1
C[C@H](CCC(=O)O)[C@H]1CC[C@H]2[C@@H]3CC[C@@H]4C[C@H](O)CC[C@]4(C)[C@H]3C[C@H](O)[C@]12C [DCA, deoxycholic acid] | incapable of transporting | incapable of transporting | 41.33 ± 0.10 | 67.86 ± 1.67% | 0
C[C@H](CCC(=O)NCCS(=O)(=O)O)[C@H]1CC[C@H]2[C@@H]3[C@H](O)C[C@@H]4C[C@H](O)CC[C@]4(C)[C@H]3C[C@H](O)[C@]12C [TCA, taurocholic acid] | incapable of transporting | incapable of transporting | 59.20 ± 0.31 | 67.21 ± 0.08% | 0
